System: Isolated Rat Bladder Strips
Experiment: Inhibition of contractions in isolated rat bladder strips (KCl-enhanced contractile activity; smooth muscle relaxation)
Format: cell-based, Sprague-Dawley rats
Settings: for IC50: isolated rat bladder strips, 15 mM additional KCl, 30 minute challenge, read-out: IC50 (50% inhibition of pre-drug contractile activity); for inhibition at 30 µM: read-out: Percent inhibition at 30 μM (I)
Excerpt: The smooth muscle relaxing activity of the compounds of this invention was established in accordance with standard pharmaceutically accepted test procedures with representative compounds as follows:
Sprague-Dawley rats (150-200 g) are rendered unconscious by CO2 asphyxiation and then euthanized by cervical dislocation. The bladder is removed into warm (37 deg.C) physiological salt solution (PSS) of the following composition (mM): NaCl, 118.4; KCl, 4.7; CaCl2, 2.5; MgSO4, 4.7; H2 O, 1,2; NaHCO3, 24.9; KH2 PO4, 1,2; glucose, 11.1; EDTA, 0.023; gassed with […]; pH 7.4. The bladder is opened and then dut into strips 1-2 mm in width and 7-10 mm in length. The strips are subsequently suspended in a 10 mL tissue bath under an initial resting tension of 1.5 g. The strips are held in place by two surgical clips one of which is attached to a fixed hook while the other is attached to an isometric force transducer. […] The carbachol is then washed out and the tissue allowed to relax to its resting level of activity. Following a further 30 min period of recovery an additional 15 mM KCl are introduced into the tissue bath. This increase in KCl concentration results in a large increase in the amplitude of spontaneous contractions (and initiation of contractions in previously quiescent strips) superimposed upon a small increase in basal tone. Following stabilization of this enhanced level of contractile activity, incremental increases in the concentration of test compound or vehicle are introduced into the tissue bath. Contractile activity is measured for each compound or vehicle concentration during the last minute of a 30 minute challenge.
The isometric force developed by the bladder strips is measured using a […] to elicit 50% inhibition of pre-drug contractile activity (IC50 concentration) and is calculated from this concentration-response curve.

| IC50 (0.5 h) [µM] | Structure (SMILES) | inhibition at 30 µM (Rattus norvegicus) [%] | percent contraction at 30 µM (Rattus norvegicus, 0.5 h, read-out: Percent contraction at 30 μM (C)) [%] |
| --- | --- | --- | --- |
| 2.1 ± 0.9 | CC(C)(C)Nc1c(NCc2ccc(F)cc2F)c(=O)c1=O [Example 18, 3-tert-Butylamino-4-(2,4-difluoro-benzylamino)-cyclobut-3-ene-1,2-dione] | – | – |
| 5.2 ± 0.6 | CCc1cc(C#N)ccc1CNc1c(NC(CC)CC)c(=O)c1=O [Example 26] | – | – |
| 0.16 ± 0.01 | CCC(C)(C)Nc1c(NCc2c(C)cc(C#N)cc2Cl)c(=O)c1=O [Example 33, 3-Chloro-4-{[2-(1,1-dimethyl-propylamino)-3,4-dioxo-cyclobut-1-enylamino]-methyl}-5-methyl-benzonitrile] | – | – |
| 23.5 ± 8.1 | CC(C)(C)Nc1c(NCc2cc(C(F)(F)F)cc(C(F)(F)F)c2)c(=O)c1=O [Example 73, 3-(3.5-Bis-trifluoromethyl-benzylamino)-4-tert-butylamino-cyclobut-3-ene-1,2-dione] | 35.8 ± 4.9 | – |
| 1.6 ± 0.18 | Cc1ccc(CNc2c(NC(C)(C)C)c(=O)c2=O)cc1C [Example 84, 3-tert-Butylamino-4-(3,4-dimethyl-benzylamino)-cyclobut-3-ene-1,2-dione] | – | – |
| 1.24 ± 0.17 | CC(C)(C)Nc1c(NCc2cccc(Cl)c2Cl)c(=O)c1=O [Example 100, 3-(t-Butylamino)-4-(2,3-dichloro-benzylamino)-cyclobut-3-ene-1,2-dione] | – | – |
| 1.6 ± 0.77 | CCC(C)(C)Nc1c(NCc2ccc(F)c(F)c2)c(=O)c1=O [Example 70, 3-(3,4-Difluoro-benzylamino)-4-(1,1-dimethyl-propylamino)-cyclobut-3-ene-1,2-dione] | – | – |
| 2.6 ± 0.4 | CC(C)(C)Nc1c(NCc2cc(F)cc(F)c2)c(=O)c1=O [Example 71, 3-tert-Butyl amino-4-(3,5-difluoro-benzylamino)-cyclobut-3-ene-1,2-dione] | – | – |
| – | Cc1ccc(CNc2c(NC(C)(C)C)c(=O)c2=O)cc1Cl [Example 90, 3-tert-Butylamino-4-(3-chloro-4-methyl-benzylamino)-cyclobut-3-ene-1,2-dione] | 16.6 ± 3.6 | – |
| 8.6 ± 3.5 | COc1cccc(CNc2c(NC(C)(C)C)c(=O)c2=O)c1OC [Example 20, 3-tert-Butylamino-4-(2,3-dimethoxy-benzylamino)-cyclobut-3-ene-1,2-dione] | – | – |
| – | COc1cccc(C)c1CNc1c(N[C@H](C)C(C)(C)C)c(=O)c1=O [Example 57, 3-(2-Methoxy-6-methyl-benzylamino)-4-(1,2,2-trimethyl-propylamino)-cyclobut-3-ene-1,2-dione] | 29.3 ± 2.3 | 160 |
| – | Cc1cc(C)c(CNc2c(NCC(F)(F)C(F)(F)F)c(=O)c2=O)c(Cl)c1 [Example 41, 3-(2-Chloro-4,6-dimethyl-benzylamino)-4-(2,2,3,3,3-pentafluoro-propylamino)-cyclobut-3-ene-1,2-dione] | 41 ± 2.9 | – |
| 6.5 ± 3.6 | CC(C)(C)Nc1c(NCc2cc(F)cc(C(F)(F)F)c2)c(=O)c1=O [Example 72, 3-tert-Butylamino-4-(3-fluoro-5-trifluoromethyl-benzylamino)-cyclobut-3-ene-1,2-dione] | – | – |
| 1.9 ± 1.1 | Cc1cc(C#N)cc(Cl)c1CNc1c(N[C@H](C)C(C)(C)C)c(=O)c1=O [Example 34, 3-Chloro-4-{[3,4-dioxo-2-(1,2,2-trimethyl-propylamino)-cyclobut-1-enylamino]-methyl}-5-methyl-benzonitrile] | – | – |
| 25 ± 10 | COc1cc(CNc2c(NC(C)(C)C)c(=O)c2=O)cc(OC)c1 [Example 22, 3-tert-butylamino-4-(3,5-dimethoxy-benzylamino)-cyclobut-3-ene-1,2-dione] | – | – |
| 1.8 ± 0.7 | Cc1cc(C)c(CNc2c(NC(C)(C)C)c(=O)c2=O)c(C)c1 [Example 9, 3-tert-Butylamino-4-(2,4,6-trimethyl-benzylamino)-cyclobut-3-ene-1,2-dione] | – | – |
| 16.7 ± 6.2 | CCc1cc(Br)ccc1CNc1c(N[C@H](C)C(C)(C)C)c(=O)c1=O [Example 47, 3-(4-Bromo-2-ethyl-benzylamino)-4-(1,2,2-trimethyl-propylamino)-cyclobut-3-ene-1,2-dione] | – | – |
| 27.1 ± 4 | CCCCNc1c(NCc2ccc(C#N)cc2CC)c(=O)c1=O [Example 24, 4-[(2-Butylamino-3,4-dioxo-cyclobut-1-enylamino)-methyl]-3-ethyl-benzonitrile] | – | – |

| IC50 (0.5 h) [µM] | Structure (SMILES) | inhibition at 30 µM (Rattus norvegicus) [%] | percent contraction at 30 µM (Rattus norvegicus, 0.5 h, read-out: Percent contraction at 30 μM (C)) [%] |
| --- | --- | --- | --- |
| 0.79 ± 0.47 | CCC(C)(C)Nc1c(NCc2cccc(Cl)c2Cl)c(=O)c1=O [Example 99, 3-(2,3-Dichloro-benzylamino)-4-(1,1-dimethyl-propylamino)-cyclobut-3-ene-1,2-dione] | – | – |
| 9.6 ± 5.7 | COc1ccc(CNc2c(NC(C)(C)C)c(=O)c2=O)c(OC)c1 [Example 17, 3-tert-Butylamino-4-(2,4-dimethoxy-benzylamino)-cyclobut-3-ene-1,2-dione] | – | – |
| 5 ± 3.5 | CCC(C)(C)Nc1c(NCc2cccc(C)c2C)c(=O)c1=O [Example 80, 3-(2,3-Dimethyl-benzylamino)-4-(1,1-dimethyl-propylamino)-cyclobut-3-ene-1,2-dione] | – | – |
| 2 ± 0.2 | CCc1cc(C#N)ccc1CNc1c(N[C@H](C)C(C)(C)C)c(=O)c1=O [Example 28, 4-{[3,4-Dioxo-2-(1,2,2-trimethyl-propylamino)-cyclobut-1-enylamino]-methyl}-3-ethyl-benzonitrile] | – | – |
| – | Cc1cccc(Cl)c1CNc1c(N[C@H](C)C(C)(C)C)c(=O)c1=O [Example 29, 3-(2-Chloro-6-methyl-benzylamino)-4-(1,2,2-trimethyl-propylamino)-cyclobut-3-ene-1,2-dione] | 38.6 ± 3.6 | – |
| 2.2 ± 0.95 | CCC(C)(C)Nc1c(N(Cc2ccc(C#N)cc2Cl)C(C)=O)c(=O)c1=O [Example 77, N-(2-Chloro-4-cyano-benzyl)-N-[2-(1,1-dimethyl-propylamino)-3,4-dioxo-cyclobut-1-enyl)-acetamide] | 25 | – |
| 6.1 ± 3.8 | CCc1cc(CNc2c(NC(C)(C)C)c(=O)c2=O)ccc1C#N [Example 46, 4-[(2-tert-Butylamino-3,4-dioxo-cyclobut-1-enylamino)-methyl]-2-ethyl-benzonitrile] | – | – |
| – | CCC(C)(C)Nc1c(NCc2ccc(C)c(Cl)c2)c(=O)c1=O [Example 91, 3-(3-Chloro-4-methyl-benzylamino)-4-(1,1-dimethyl-propylamino)-cyclobut-3-ene-1,2-dione] | 30.7 ± 6.7 | – |
| 4.9 ± 2.7 | CC(C)(C)Nc1c(NCc2cc(C(F)(F)F)ccc2F)c(=O)c1=O [Example 64, 3-tert-Butylamino-4-(2-fluoro-5-trifluoromethyl-benzylamino)-cyclobut-3-ene-1,2-dione] | – | – |
| 4.35 ± 4.1 | CCC(C)(C)Nc1c(NCc2c(C)cccc2Cl)c(=O)c1=O [Example 32, 3-(2-chloro-6-methyl-benzylamino)-4-(1,1-dimethyl-propylamino)-cyclobut-3-ene-1,2-dione] | – | – |
| 0.95 ± 0.75 | COc1cc(C#N)ccc1CNc1c(N[C@H](C)C(C)(C)C)c(=O)c1=O [Example 56, 4-{[3,4-Dioxo-2-(1,2,2-trimethyl-propylamino)-cyclobut-1-enylamino]-methyl}-3-methoxy-benzonitrile] | – | – |
| 0.71 ± 0.5 | Cc1cc(C)c(CNc2c(NC(C)(C)C)c(=O)c2=O)c(Cl)c1 [Example 39, 3-tert-Butylamino-4-(2-chloro-4,6-dimethyl-benzylamino)-cyclobut-3-ene-1,2-dione] | – | – |
| 1.7 ± 1 | C[C@@H](Nc1c(NCc2ccc(F)cc2C(F)(F)F)c(=O)c1=O)C(C)(C)C [Example 61, 3-(4-Fluoro-2-trifluoromethyl-benzylamino)-4-(1,2,2-trimethyl-propylamino)-cyclobut-3-ene-1,2-dione] | – | – |
| 5.9 ± 1.8 | Cc1cccc(C)c1CNc1c(NC(C)(C)C)c(=O)c1=O [Example 52, 3-tert-Butylamino-4-(2,6-dimethyl-benzylamino)-cyclobut-3-ene-1,2-dione] | – | – |
| 0.28 ± 0.025 | CCC(C)(C)Nc1c(NCc2cccc(Cl)c2C)c(=O)c1=O [Example 97, 3-(3-Chloro-2-methyl-benzylamino)-4-(1,1-dimethyl-propylamino)-cyclobut-3-ene-1,2-dione] | – | – |
| 7.3 ± 6 | CCC(C)(C)Nc1c(NCc2cc(Cl)cc(Cl)c2)c(=O)c1=O [Example 88, 3-(3,5-Dichloro-benzylamino)-4-(1,1-dimethyl-propylamino)-cyclobut-3-ene-1,2-dione] | – | – |
| 1.91 ± 0.84 | CCC(C)(C)Nc1c(NCc2cc(C)ccc2C)c(=O)c1=O [Example 94, 3-(2,5-Dimethyl-benzylamino)-4-(1,1-dimethyl-propylamino)-cyclobut-3-ene-1,2-dione] | – | – |
| 8.9 ± 3 | Cc1cc(Br)cc(C)c1CNc1c(N[C@H](C)C(C)(C)C)c(=O)c1=O [Example 35, 3-(4-Bromo-2,6-dimethyl-benzylamino)-4-(1,2,2-trimethyl-propylamino)-cyclobut-3-ene-1,2-dione] | – | – |

| Structure (SMILES) | IC50 (0.5 h) [µM] | inhibition at 30 µM (Rattus norvegicus) [%] | percent contraction at 30 µM (Rattus norvegicus, 0.5 h, read-out: Percent contraction at 30 μM (C)) [%] |
| --- | --- | --- | --- |
| CCC(C)(C)Nc1c(NCc2ccc(C#N)c(Cl)c2)c(=O)c1=O [Example 44, 2-Chloro-4-{[2-(1,1-dimethyl-propylamino]-3,4-dioxo-cyclobut-1-enylamino)-methyl}-benzonitrile] | 0.26 ± 0.015 | – | – |
